# Legend:
# HEK293 = test: Ability to decrease the intracellular cAMP levels induced by 1 nM NDP-MSH in HEK293/ hMC4 cells.; format: functional, cell-based; conditions: Homo sapiens
# Melanocortin receptor 4 = Melanocortin receptor 4 (Homo sapiens, UniProt P32245); test: In vitro binding affinity towards melanocortin 4 receptor.
# [1] = Cmax in rat; format: ADME, organism-based; conditions: in vivo
# [2] = Plasma clearance in rat p.o.; format: ADME, organism-based; conditions: po
# [3] = AUC in rat p.o.; format: ADME, organism-based; conditions: plasma, po
# [4] = AUC was determined; format: ADME; conditions: plasma
# [5] = Plasma clearance was determined; format: ADME, organism-based; conditions: rat
# [6] = Cmax in rat at the dose of 1 mg/kg i.v.; format: ADME, organism-based; set-up: dose 1 mg/kg, route intravenous; conditions: in vivo, iv
# Chain of Melanocortin receptor 4 (P32245 whole entry): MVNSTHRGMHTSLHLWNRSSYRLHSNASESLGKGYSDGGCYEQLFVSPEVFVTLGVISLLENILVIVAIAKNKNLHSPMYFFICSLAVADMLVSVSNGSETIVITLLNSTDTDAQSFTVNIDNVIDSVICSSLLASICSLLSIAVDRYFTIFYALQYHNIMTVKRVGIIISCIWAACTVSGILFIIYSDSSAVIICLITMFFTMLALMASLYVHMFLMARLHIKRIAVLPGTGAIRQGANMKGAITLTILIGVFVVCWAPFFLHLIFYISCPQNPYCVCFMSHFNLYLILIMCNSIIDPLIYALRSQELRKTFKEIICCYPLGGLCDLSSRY
Compound,IC50 (HEK293) [nM],Ki (Melanocortin receptor 4) [nM],further results
COc1ccc(Br)cc1CCc1ccccc1-c1nc(C)cn1C,240,270,–
COc1ccc(Br)cc1CCc1c(Cl)cccc1-c1nccn1C(C)C,1400,670,–
CCC(C)n1ccnc1-c1cccc(Cl)c1CCc1cc(Br)ccc1OC (configuration not stated),2100,2500,–
COc1ccc(Br)cc1CCc1ccccc1-c1ncc(C)n1C,51,180,–
CCCn1ccnc1-c1cccc(Cl)c1CCc1cc(Br)ccc1OC,1900,1300,–
CCc1cn(C)c(-c2ccccc2CCc2cc(Br)ccc2OC)n1,820,690,–
COc1ccc(Br)cc1CCc1c(F)cccc1-c1ncc2n1CCC2,390,320,–
COc1ccc(Br)cc1CCc1c(Cl)cccc1-c1nccn1C,1100,300,–
COc1ccc(Br)cc1CCc1c(Cl)cccc1-c1ncc2n1CCC2,710,180,–
Cn1ccnc1-c1cccc(Cl)c1CCc1cc(Br)ccc1O,10200,9300,–
COc1ccc(Br)cc1CCc1ccccc1-c1nc(C)c(C)n1C,200,140,–
COc1ccc(Br)cc1CCc1ccccc1-c1nc(C(C)C)cn1C,1200,1600,–
CCc1cnc(-c2ccccc2CCc2cc(Br)ccc2OC)n1C,170,320,–
COc1ccc(Br)cc1CCc1c(F)cccc1-c1ncc2n1CCCC2,480,620,–
COc1ccc(Br)cc1CCc1c(Cl)cccc1-c1ncc2n1CCCC2,590,340,Cmax [1]: 6.45 µM; CL/F [2]: 18.3 mL/min/kg; AUC [3]: 2 µM·h
COc1ccc(Br)cc1CCc1c(Cl)cccc1-c1nccn1CC1CC1,1700,2000,–
COc1ccc(Br)cc1CCc1c(F)cccc1C1=NCCN1,–,–,AUC [4]: 0.204 µM·h; clearance [5]: 222 mL/min/kg; Cmax [6]: 0.031 µM
COc1ccc(Br)cc1CCc1c(Cl)cccc1-c1ncc[nH]1,580,1500,–
CCn1ccnc1-c1cccc(Cl)c1CCc1cc(Br)ccc1OC,1800,310,–
